Where two headings read alike, the source gives them in different places.
Experiments:
[1] = system: α-isomaltosylglucosaccharide-forming enzyme; test: Action on saccharides (substrates), Enzyme of Strain A19; format: biochemical, Arthrobacter globiformis A19; parameters: key: −: it showed no change; +: it showed a slight reduction of the color spot of the substrate and the formation of other reaction product; ++: it showed a high reduction of the color spot of the substrate and the formation of other reaction product; +++: it showed a substantial disappearance of the substrate spot and the formation of other reaction product; conditions: two units/g substrate, substrate 2% (w/v), 30° C., pH 8.4, 24 hours, TLC
Procedure, shortened: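 Purified enzyme from each strain was added at 2 units/g substrate to each of 24 saccharides at 2% (w/v). Incubation ran 24 h at 30° C, pH 6.0, or pH 8.4 for the A19 enzyme. TLC compared reaction mixtures before and after incubation to show whether each substrate was acted on.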

[2] = molecular target: T1, Amylopsin (Homo sapiens, UniProt P04746); test: Digestion test in vitro, amylopsin
T1 sequence (P04746 16-511): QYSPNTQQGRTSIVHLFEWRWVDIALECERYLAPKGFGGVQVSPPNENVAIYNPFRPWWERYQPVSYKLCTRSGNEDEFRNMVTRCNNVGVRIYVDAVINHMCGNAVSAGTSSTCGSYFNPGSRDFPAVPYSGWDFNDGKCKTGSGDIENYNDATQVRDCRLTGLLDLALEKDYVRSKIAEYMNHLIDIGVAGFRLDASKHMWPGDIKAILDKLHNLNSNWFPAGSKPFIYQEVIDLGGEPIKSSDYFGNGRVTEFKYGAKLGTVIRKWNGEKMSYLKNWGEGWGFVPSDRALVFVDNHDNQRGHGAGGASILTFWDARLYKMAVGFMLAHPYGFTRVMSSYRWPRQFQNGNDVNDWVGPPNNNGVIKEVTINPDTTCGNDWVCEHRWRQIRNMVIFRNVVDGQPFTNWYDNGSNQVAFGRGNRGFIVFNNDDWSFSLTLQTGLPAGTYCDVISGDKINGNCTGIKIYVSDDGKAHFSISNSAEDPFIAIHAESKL

[3] = Digestion test in vitro, synthetic gastric juice
[4] = Saturation concentration of cyclotetrasaccharide in water; format: physicochemical
From the text: Each resulting saturated solution of cyclotetrasaccharide was membrane filtered to remove undissolved cyclotetrasaccharide, and each filtrate was then examined for moisture content by the drying loss method to determine a saturation concentration of cyclotetrasaccharide at respective temperatures.

[5] = system: Bifidobacterium adolescentis JCM 1275; test: Assimilation test, Bifidobacterium adolescentis; format: cell-based; conditions: PYF medium with 0.5% saccharide, 37° C., four days, anaerobic
[6] = Inclusion action; format: physicochemical
Description: To 100 g of the aqueous solution was added 2 g of methanol, 3 g of ethanol, or 4.6 g acetic acid to be included by the cyclotetrasaccharide. Thereafter, each of the resulting solutions was filtered to remove non-included products, and the filtrate was dried in vacuo. As a control, similar inclusion products were prepared by using “ISOELITE™ P”, a branched cyclodextrin commercialized by Maruha K.K., Tokyo, Japan, which were known to have inclusion ability.
To measure the amount of the inclusion products in the resulting lyophilized powders, one gram of each powder was dissolved in five milliliters water and extracted after admixing with five milliliters of diethylether. The extraction was repeated, and the resulting extracts were quantified on gas chromatography.

[7] = Thermostability of aqueous cyclotetrasaccharide solution; format: physicochemical; conditions: 10% (w/v) aqueous solution, 120° C.; for Purity (%) after heating: HPLC
Description: After the heating, the aqueous solution was cooled under atmospheric conditions and measured for coloration degree and determined for purity on HPLC. The coloration degree was evaluated based on the absorbance in a cell with a 1-cm light pass at a wavelength of 480 nm.

[8] = molecular target: T1, Amylopsin

Question: Which “Enzymatic action, Enzyme of Strain A19” value [1] does the source give for `OC[C@@H](O)[C@@H](O[C@H]1O[C@H](CO)[C@@H](O)[C@H](O)[C@H]1O)[C@H](O)[C@@H](O)CO` [Maltitol, reference compound] here?
Answer: Its value is “−”.

Question: What about the “Decomposition percentage (%) by digestive enzyme” value (“Decomposition percentage (%)” below) [2] of the same molecule?
Answer: The value was 0.0%.

Question: What about the “Decomposition percentage (%)” value [3] of the same molecule?
Answer: The value was 0.0%.

Question: For `OCC1OC2OCC3O[C@H](O[C@H]4C(O)C(CO)OC(OCC5O[C@H](O[C@@H](C1O)C2O)C(O)C(O)[C@@H]5O)C4O)C(O)C(O)[C@@H]3O` (stereo partly drawn) [Cyclotetrasaccharide, cyclo{→6)-α-D-glucopyranosyl-(1→3)-α-D-glucopyranosyl-(1→6)-α-D-glucopyranosyl-(1→3)-α-D-glucopyransoyl-(1→}], which “Saturation concentration (%)” value ([4]; 10° C.) is on record?
Answer: Its value is 30.3%.

Question: And the “Saturation concentration (%)” value ([4]; 30° C.)?
Answer: Its value is 34.2%.

Question: And the “Saturation concentration (%)” value ([4]; 50° C.)?
Answer: Its value is 42.6%.

Question: And the “Saturation concentration (%)” value ([4]; 70° C.)?
Answer: The value was 53.0%.

Question: What about the “Saturation concentration (%)” value ([4]; 90° C.) of the same molecule?
Answer: The value was 70.5%.

Question: And the Assimilability [5]?
Answer: Its Assimilability is “− (judged negative (−) when the post culture had a pH of 6.0 or higher)”.

Question: And the “inclusion ability relative to that of the branched cyclodextrin” value ([6]; by weight)?
Answer: Its value is “about 2 folds”.

Question: What about the “Inclusion amount (mg/g lyophilized powder)” value (“Inclusion amount” below) ([6]; inclusion product Acetic acid) of the same molecule?
Answer: Its value is 67.74 mg/g lyophilized powder.

Question: What about the “Inclusion amount” value ([6]; inclusion product Ethanol) of the same molecule?
Answer: The value was 17.26 mg/g lyophilized powder.

Question: What about the “Inclusion amount” value ([6]; inclusion product Methanol) of the same molecule?
Answer: The value was 6.71 mg/g lyophilized powder.

Question: And the “Coloration degree (A480 nm)” value ([7]; heating time 0 min)?
Answer: Its value is 0.00 A480 nm.

Question: What about the “Purity (%) after heating” value ([7]; heating time 0 min) of the same molecule?
Answer: Its value is 100%.

Question: And the “Coloration degree (A480 nm)” value ([7]; heating time 30 min)?
Answer: The value was 0.00 A480 nm.

Question: What about the “Purity (%) after heating” value ([7]; heating time 30 min) of the same molecule?
Answer: The value was 100%.

Question: And the “Coloration degree (A480 nm)” value ([7]; heating time 60 min)?
Answer: The value was 0.00 A480 nm.

Question: And the “Purity (%) after heating” value ([7]; heating time 60 min)?
Answer: The value was 100%.

Question: And the “Coloration degree (A480 nm)” value ([7]; heating time 90 min)?
Answer: Its value is 0.00 A480 nm.

Question: And the “Purity (%) after heating” value ([7]; heating time 90 min)?
Answer: The value was 100%.

Question: What about the “Decomposition percentage (%)” value [8] of the same molecule?
Answer: The value was 0.0%.

From US7811797B2, “α-isomaltosylglucosaccharide-forming enzyme, process and uses of the same” (Kabushiki Kaisha Hayashibara Seibutsu Kagaku Kenkyujo, priority 2000, dated 2010)
